Assay results from BindingDB's records for patent US20230348450 (Genzyme, 2023).
pIC50: −log10 of the molar value. Where “and” joins values, the source holds several entries; their conditions need not be identical. Equal entries are not always repeated.

Biological target: T1, Bisphosphoglycerate mutase (Homo sapiens, UniProt P07738)
T1 sequence (P07738 whole entry): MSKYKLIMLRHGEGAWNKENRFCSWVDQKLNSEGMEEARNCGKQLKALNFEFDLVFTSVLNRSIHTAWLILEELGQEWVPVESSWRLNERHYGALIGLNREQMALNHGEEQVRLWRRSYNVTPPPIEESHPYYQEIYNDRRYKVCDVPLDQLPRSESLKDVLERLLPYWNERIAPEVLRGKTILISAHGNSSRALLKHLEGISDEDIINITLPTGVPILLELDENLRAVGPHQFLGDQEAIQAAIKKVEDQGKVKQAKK
Assay: BPGM Synthase Assay
Procedure: To the assay plate was added Enzyme Solution (20 uL) to columns 2-22 and 24 of the assay plate. To columns 1 and 23 was added GAPDH Solution (20 uL). A separate compound plate was prepared at the desired concentrations and all wells were normalized with 5% DMSO. The compound plate was incubated for 30 minutes at RT. Next, the substrate solution (20 μL) was dispensed to all reaction wells and the plate was incubated for 60 minutes at RT. Koningic acid (1 μL) was added and the plate was incubated for 10 minutes at RT. […] Next, Resazurin Solution (10 μL) was added to all reaction wells and the plate was incubated for 30 minutes at RT.

Cc1nc(COc2ccc(F)cn2)sc1-c1cccc(-c2ccc(C(=O)O)c(O)c2)c1 [US20230348450, Example 1]
pIC50: 5.82 and 6.00

Cc1nc(COc2ncccn2)sc1-c1cccc(-c2ccc(S(=O)(=O)CC(=O)O)cc2)n1 [US20230348450, Example 2]
pIC50: 6.84

Cc1nc(COc2ncccn2)sc1-c1cccc(-c2cc(C(=O)O)cs2)n1 [US20230348450, Example 3]
pIC50: 6.59 and 6.74

Cc1nc(COc2ccccn2)sc1-c1cccc(-c2ccc(C(=O)O)c(O)c2)c1 [US20230348450, Example 4]
pIC50: 6.23 and 6.15

Cc1nc(COc2ncccn2)sc1-c1cccc(-c2ccc(C(=O)O)c(O)c2)n1 [US20230348450, Example 6]
pIC50: 7.15

Cc1nc(COCC(=O)N(C)C)sc1-c1csc(-c2cc(O)c(C(=O)O)cc2F)n1 [US20230348450, Example 7]
pIC50: 7.22

COC(=O)NCc1nc(C)c(-c2nsc(-c3cc(O)c(C(=O)O)cc3F)n2)s1 [US20230348450, Example 8]
pIC50: 7.02

COC(=O)NCc1nc(C)c(-c2cccc(-c3ccc(C(=O)O)c(O)c3)n2)s1 [US20230348450, Example 9]
pIC50: 6.50

CC(=O)NCc1nc(C)c(-c2csc(-c3cc(O)c(C(=O)O)cc3F)n2)s1 [US20230348450, Example 10]
pIC50: 7.02

COC(=O)NCc1nc(C)c(-c2csc(-c3cc(O)c(C(=O)O)cc3F)n2)s1 [US20230348450, Example 209]
pIC50: 7.20 and 7.23
